Consider 53 compounds from US7358249B2, “Heterocyclic compounds having inhibitory activity against HIV integrase” (Shionogi & Co., Ltd., priority 2002, dated 2008).

The melting point is the temperature, or range, at which the solid turns liquid.

The structures appear in SMILES notation. Values joined by “and” are separate entries in the source; they are usually repeats but may differ in a detail not shown here. Equal values may be shown once. Where a name gives a salt, the structure may show the parent alone. A value given as a limit tells only on which side of the number the result lay.

System in the first series: not given
Test: not given
Conditions: not given
For `COCCCC(=O)c1ncc2cc(Cc3ccc(F)cc3)cnc2c1O`, the melting point lay within 117 to 118 °C.

For `COC(=O)c1nc(N2CCCC2=O)c2cc(Cc3ccc(F)cc3)cnc2c1O`, the melting point lay in the range of 260 to 262 °C.

Turning to `COC(=O)c1nc(NC(=O)Nc2ccccc2)c2cc(Cc3ccc(F)cc3)cnc2c1O`, the melting point was in the range of 254 to 255 °C.

In the case of `CN(C)NC(=O)c1nc(-c2ccc(CO)cc2)c2cc(Cc3ccc(F)cc3)cnc2c1O`, the melting point lay within 219 to 221 °C.

On to `COC(=O)c1nc(N2CCCCS2(=O)=O)c2cc(Cc3ccccc3)cnc2c1O`, for which the melting point was 183 to 185 °C and 186 °C.

Regarding `CC(C)NC(=O)c1nc(NS(C)(=O)=O)c2cc(Cc3ccc(F)cc3)cnc2c1O`, the melting point lay within 167 to 168 °C.

Regarding `O=C(NCc1ccc(F)cc1)c1c(O)c2ncc(Cc3ccccc3)cc2[nH]c1=O`, the melting point was > 300 °C.

With `CC(C)OC(=O)c1cc(C(=O)O)c2cc(Cc3ccc(F)cc3)cnc2c1O`, the melting point was 249 to 251 °C (dec.).

The compound `CCC(=O)c1cc(C(=O)O)c2cc(Cc3ccc(F)cc3)cnc2c1O` gave a melting point of 235 to 237 °C.

Compound `CCCC(=O)c1cc(C(=O)O)c2cc(Cc3ccc(F)cc3)cnc2c1O` registered a melting point of 232 to 234 °C.

For `CCCCC(=O)c1cc(C(=O)O)c2cc(Cc3ccc(F)cc3)cnc2c1O`, the melting point lay in the range of 227 to 229 °C.

Consider `COCCCCC(=O)c1cc(C(=O)O)c2cc(Cc3ccc(F)cc3)cnc2c1O`, for which the melting point was 216 to 218 °C.

`O=C1CCc2cc3cc(Cc4ccc(F)cc4)cnc3c(O)c21` returned a melting point of 195 to 197 °C.

Consider `COC(=O)c1cc(C(C)=O)c2cc(Cc3ccc(F)cc3)cnc2c1O`, for which the melting point was in the range of 166 to 168 °C.

In turn, `COC(=O)c1cc(N(C=O)C=O)c2cc(Cc3ccc(F)cc3)cnc2c1O` displayed a melting point of 243 to 245 °C.

Take `COCc1cc(C(=O)OC)c(O)c2ncc(Cc3ccc(F)cc3)cc12`: the melting point was in the range of 110 to 111 °C.

`CCN(C=O)c1cc(C(=O)OC)c(O)c2ncc(Cc3ccc(F)cc3)cc12` displayed a melting point of 90 to 91 °C.

The compound `CCN(c1cc(C(=O)OC)c(O)c2ncc(Cc3ccc(F)cc3)cc12)S(C)(=O)=O` registered a melting point of 149 to 150 °C.

The compound `COC(=O)c1cc(C(=O)OCc2ccccc2)c2cc(Cc3ccc(F)cc3)cnc2c1O` showed a melting point of 131 to 133 °C.

The compound `COC(=O)c1cc(CN2C(=O)CCCC2=O)c2cc(Cc3ccc(F)cc3)cnc2c1O` registered a melting point of 154 to 156 °C.

`CNC(=O)c1cc(C(=O)O)c2cc(Cc3ccc(F)cc3)cnc2c1O` yielded a melting point of 203 to 205 °C.

`CN(C)C(=O)c1cc(C(=O)O)c2cc(Cc3ccc(F)cc3)cnc2c1O`: the melting point was in the range of 214.5 to 215.5 °C.

On to `COC(=O)C=Cc1cc(C(=O)OC)c(O)c2ncc(Cc3ccc(F)cc3)cc12`, for which the melting point is 139 to 141 °C.

Turning to `COC(=O)c1cc(C=CC(=O)O)c2cc(Cc3ccc(F)cc3)cnc2c1O`, the melting point lay in the range of 235 to 237 °C.

The compound `COC(=O)c1cc(-c2ccccc2C=O)c2cc(Cc3ccc(F)cc3)cnc2c1O` returned a melting point of 73 to 75 °C.

Turning to `COC(=O)c1cc(C(N)=O)c2cc(Cc3ccc(F)cc3)cnc2c1OC(C)=O`, the melting point was 206 °C.

In turn, `COC(=O)c1cc(NCC(C)C)c2cc(Cc3ccc(F)cc3)cnc2c1O` came in with a melting point of 249 to 251 °C.

Turning to `COCC(=O)Nc1cc(C(=O)OC)c(O)c2ncc(Cc3ccc(F)cc3)cc12`, the melting point is 154 to 155 °C.

With `COC(=O)c1cc(NC(=O)c2ccccc2Cl)c2cc(Cc3ccc(F)cc3)cnc2c1O`, the melting point was 230 to 232 °C.

For `COC(=O)c1cc(N2CCNC2=O)c2cc(Cc3ccc(F)cc3)cnc2c1O`, the melting point was 248 to 250 °C.

Regarding `COC(=O)c1cc(NC(=O)COc2ccccc2)c2cc(Cc3ccc(F)cc3)cnc2c1O`, the melting point was 172 to 173 °C.

`CC(=O)N1CCC(OC(=O)c2cc(C(=O)NCCCO)c3cc(Cc4ccc(F)cc4)cnc3c2O)CC1` had a melting point of 97 to 99 °C.

Regarding `COC(=O)c1cc(C(=O)NCCNC(C)=O)c2cc(Cc3ccc(F)cc3)cnc2c1O`, the melting point was in the range of 251 to 253 °C.

Compound `COC(=O)c1cc(C(=O)NC2CCOCC2)c2cc(Cc3ccc(F)cc3)cnc2c1O` gave a melting point of 246 to 247 °C.

In turn, `COC(=O)c1cc(C(=O)NNC(=O)c2cccnc2)c2cc(Cc3ccc(F)cc3)cnc2c1O` returned a melting point of 184 to 185 °C.

Compound `COC(=O)c1cc(C(=O)NNC(=O)c2ccccn2)c2cc(Cc3ccc(F)cc3)cnc2c1O` returned a melting point of 164 to 166 °C.

`COCCCNC(=O)c1cc(C(=O)OC)c(O)c2ncc(Cc3ccc(F)cc3)cc12` came in with a melting point of 166 to 167 °C.

Consider `CCOCCNC(=O)c1cc(C(=O)OC)c(O)c2ncc(Cc3ccc(F)cc3)cc12`, for which the melting point was 174 to 175 °C.

Compound `COC(=O)c1cc(C(=O)NCCN(C)C)c2cc(Cc3ccc(F)cc3)cnc2c1O` showed a melting point of 115 to 116 °C.

The compound `COC(=O)c1cc(C(=O)N(C)CC(=O)N(C)C)c2cc(Cc3ccc(F)cc3)cnc2c1O` displayed a melting point of 99 to 100 °C.

`COC(=O)c1cc(C(=O)NCCOCCO)c2cc(Cc3ccc(F)cc3)cnc2c1O` had a melting point of 162 to 163 °C.

Take `COC(=O)c1cc(C(=O)N2CCC(O)CC2)c2cc(Cc3ccc(F)cc3)cnc2c1O`: the melting point was 196 to 197 °C.

As to `CONC(=O)c1cc(C(=O)OC)c(O)c2ncc(Cc3ccc(F)cc3)cc12`, the melting point was in the range of 200 to 201 °C.

Compound `COC(=O)c1cc(C(=O)N2CCCC(=O)C2)c2cc(Cc3ccc(F)cc3)cnc2c1O` yielded a melting point of 228 to 229 °C.

With `COC(=O)c1cc(C(=O)NCC(C)C)c2cc(Cc3ccc(F)cc3)cnc2c1O`, the melting point was 178 to 179 °C.

Regarding `CCOC(=O)CNNC(=O)c1cc(C(=O)OC)c(O)c2ncc(Cc3ccc(F)cc3)cc12`, the melting point was in the range of 184 to 185 °C.

`COC(=O)c1cc(C(=O)NC2CCN(C(C)=O)CC2)c2cc(Cc3ccc(F)cc3)cnc2c1O` yielded a melting point of 214 to 215 °C.

With `COC(=O)c1cc(C(=O)NC2CCNCC2)c2cc(Cc3ccc(F)cc3)cnc2c1O`, the melting point lay in the range of 232 to 233 °C.

In turn, `COC(=O)c1cc(C(=O)NNCC(=O)N(C)C)c2cc(Cc3ccc(F)cc3)cnc2c1O` showed a melting point of 170 to 172 °C.

In turn, `COC(=O)c1cc(NC(=O)c2ccnc(C)c2)c2cc(Cc3ccc(F)cc3)cnc2c1O` (as salt: salt) had a melting point of 229 to 230 °C.

In the next series the target is HIV integrase (Human immunodeficiency virus type 1 group M subtype B, UniProt P04585). As to the kind of experiment: integrase inhibition assay (microtiter plate, substrate DNA / target DNA). In kind it is biochemical. As to conditions: integrase 30 pmol, incubated at 30° C. for 1 hour, OD at 405 nm; concentration at percent inhibition 50%. As to the method: The inhibitory activities against integrase of the presnt compounds were determined by the assay described below.
(1) Preparation of DNA Solutions
Substrate DNA and target DNA synthesized by Amersham Pharmacia Biotech, which sequences were indicated below, were dissolved in KTE buffer (composition: 100 mM KCl, 1 mM EDTA, 10 mM Tris-HCl (pH 7.6)) at a concentration of 2 pmol/μl and 5 pmol/μl, respectively. The DNA solutions were heated and then slowly cooled so that they were annealed with each complement.
(Sequence of Substrate DNA)
(2) Calculations of the percent inhibitions (IC50 values of test compounds)
Streptavidin, obtained from Vector Laboratories, was dissolved in 0.1 M carbonate buffer (composition: 90 mM Na2CO3, 10 mM NaHCO3) at a concentration of 40 μg/ml. After coating each well of microtiter plates (obtained from NUNC) with 50 μl of the above solution at 4° C. over night, each well was washed twice with PBS (composition: […], 0.27 mM KCl, 0.43 mM Na2HPO4, 0.14 mM KH2PO4) and blocked with 300 μl of 1% skim milk in PBS for 30 min. Additionally, each well was washed twice with PBS and added with 50 μl of the substrate DNA solution (2 pmol/μl). The microtiter plates were kept at room temperature for 30 min. Then, each well was washed twice with PBS and once with H2O.
Subsequently, to the each well prepared above were added 45 μl of the reaction buffer prepared from 12 μl of the buffer (composition: 150 mM MOPS (pH 7.2), 75 mM MnCl2, 50 mM 2-mercaptoethanol, 25% glycerol, 500 μg/ml bovine serum albumin-fraction V), 1 μl of target DNA (5 pmol/μ), and 32 μl of the distilled water. Additionally, 6 μl of either a test compound in DMSO or DMSO for positive control (PC) was mixed with the above reaction buffer, then 9 μl of an integrase solution (30 pmol) was added thereto and the mixture was mixed well. To the well of negative control (NC) was added 9 μl of the integrase dilution buffer (composition: 20 mM MOPS (pH7.2), 400 mM potassium glutamate, 1 mM EDTA, 0.1% NP-40, 20% glycerol, 1 mM DTT, 4 M urea).
The microtiter plates were incubated at 30° C. for 1 hour. The reaction solution was removed and each well was washed twice with PBS. Subsequently, each well of the microtiter plates was filled with 100 μl of anti-digoxigenin antibody labeled with alkaline phosphatase (Sheep Fab fragment: obtained from Boehringer) and incubated at 30° C. for 1 hour. Then, each well was washed twice with 0.05% Tween20 in PBS and once with PBS. Next, 150 μl of the Alkaline phosphatase reaction buffer (composition: 10 mM p-Nitrophenylphosphate (obtained from Vector Laboratories), 5 mM MgCl2, 100 mM NaCl, 100 mM Tris-HCl (pH 9.5)) was added to each well. The microtiter plates were incubated at 30° C. for 2 hours and the reaction was terminated by the addition of 50 μl of 1 N NaOH solution. The optical density (OD) at 405 nm of each well was measured and the percent inhibition was determined by the following expression. The percent inhibition (%)=100[1−{(C abs.−NC abs.)/(PC abs.−NC abs.)}]
C abs.; the OD of the well of the test compound
NC abs.: the OD of the negative control (NC)
PC abs.: the OD of the positive control (PC)
When the percent inhibition (%) is X % at a concentration of x μg/ml and the percent inhibition (%) is Y % at a concentration of y μg/ml, one of which is more than 50% and the other is less than 50%, IC50 can be determined by the following expression. IC50 (μg/ml)=x−{(X−50)(x−y)/(X−Y)}
Compound No. in the Table 1 is the same as compound No. of the above Examples.
Turning to `CCC(=O)c1ncc2cc(Cc3ccc(F)cc3)cnc2c1O` [Compound A-19, 1-[3-(4-fluorobenzyl)-8-hydroxy-1,6-naphthylidin-7-yl]propan-1-one], the “MIA, IC50” value stood at 0.12 µg/mL.

The same series, now with this note: integrase 30 pmol, incubated at 30° C. for 1 hour, OD at 405 nm; concentration at percent inhibition 50%; read-out: MIA, IC50 (ug/ml) (converted).
On to `COC(=O)c1nc(N2CCCCS2(=O)=O)c2cc(Cc3ccc(F)cc3)cnc2c1O` [Compound A-22, Methyl 3-(4-fluorobenzyl)-5-(1,1-dioxido-1,2-thiazinan-2-yl)-8-hydroxy-1,6-naphthylidine-7-carboxylate], for which the IC50 is 427 nM.

Regarding `COC(=O)c1nc(NC(=O)C(=O)N(C)C)c2cc(Cc3ccc(F)cc3)cnc2c1O` [Compound A-115, 5-[[(Dimethylamino)oxalyl]amino]-3-(4-fluorobenzyl)-8-hydroxy[1,6]naphthylidine-7-carboxylic acid methyl ester], the IC50 is 422 nM.
